The values below come from patent US20210340572A1, “HIGH-CONTENT IMAGING OF MICROFLUIDIC DEVICES” (EMULATE, Inc., priority 2019, published 2021).

Structures are written as SMILES.

Data set [1] deals with microfluidic devices seeded with human liver cells. Description: Albumin secretion, microfluidic devices seeded with human liver cells. The data set is classed as cell-based. The text has this: Prior to cell seeding, microfluidic devices, in this case S-1 Chips (Emulate, Inc. Boston, Mass., USA), were functionalized using Emulate's proprietary protocols and reagents (ERT™), including those described herein. After surface functionalization, both channels of the microfluidic device were coated with species-specific extracellular matrices (ECM). For the human bound microfluidic device, a mixture of collagen type I (Corning, Corning, N.Y., USA) and fibronectin, e.g. bovine, (Gibco) was used; for the rat bound microfluidic devices a mixture of collagen type IV, e.g. human placenta, (Sigma-Aldrich, St. Louis, Mo., USA) and fibronectin (Gibco) was used; for the dog bound microfluidic devices a mixture of collagen I (Corning), collagen type IV (Sigma-Aldrich), and fibronectin (Gibco) was used. […] For the dual-cell culture model (hepatocytes and endothelial cells), the LSECs were seeded at a concentration of 2-4 million cells/mL in the lower vascular channel. […] After cell seeding, the upper channel of the microfluidic device was maintained in William's E Medium (WEM) containing Glutamax (Gibco), ITS+(Corning), dexamethasone (Sigma-Aldrich), ascorbic acid (Sigma-Aldrich), fetal bovine serum (FBS) (Sigma-Aldrich), and Penicillin/Streptomycin (Sigma-Aldrich). The vascular channel of the microfluidic device was maintained with species-specific endothelial media (Emulate, Inc.). Two days after seeding, the microfluidic devices were connected to the Human Emulation System™ (Emulate, Inc.), as described in part herein, and both of the microfluidic device channels were perfused at 30 μL/hr to provide a continuous supply of fresh media for the duration of the experiments. Albumin secretion from the upper channel was quantified using ELISA kits for human, rat, and dog models effluent samples (human and rat: Abcam; dog: Immunology Consultants Laboratory, Inc., Portland, Oreg., USA) and the assays were performed according to the protocol provided by each vendor.

Data set [2] has as its system microfluidic devices seeded with rat liver cells. The experiment in a line: Albumin secretion / hepatocyte function, microfluidic devices seeded with rat liver cells. The data set is classed as cell-based. The following applies: rat quadruple-cell chips, 1, 10, 30 μM. The text has this:
Prior to cell seeding, microfluidic devices, in this case S-1 Chips (Emulate, Inc. Boston, Mass., USA), were functionalized using Emulate's proprietary protocols and reagents (ERT™), including those described herein. After surface functionalization, both channels of the microfluidic device were coated with species-specific extracellular matrices (ECM). For the human bound microfluidic device, a mixture of collagen type I (Corning, Corning, N.Y., USA) and fibronectin, e.g. bovine, (Gibco) was used; for the rat bound microfluidic devices a mixture of collagen type IV, e.g. human placenta, (Sigma-Aldrich, St. Louis, Mo., USA) and fibronectin (Gibco) was used; for the dog bound microfluidic devices a mixture of collagen I (Corning), collagen type IV (Sigma-Aldrich), and fibronectin (Gibco) was used. […] For the dual-cell culture model (hepatocytes and endothelial cells), the LSECs were seeded at a concentration of 2-4 million cells/mL in the lower vascular channel. […] Albumin secretion from the upper channel was quantified using ELISA kits for human, rat, and dog models effluent samples (human and rat: Abcam; dog: Immunology Consultants Laboratory, Inc., Portland, Oreg., USA) and the assays were performed according to the protocol provided by each vendor.

The test system of data set [3] is microfluidic devices seeded with human liver cells. The experiment in a line: Cytokine release (IL-6, MCP-1, IP-10) from the vascular channel of human chips. Type of data set: cell-based. The settings on record: for release of cytokines/chemokines including IP-10: treated chips; for IL-6 release / MCP-1 release: 14 days. The method, then: Cytokines: Release of IL-6, MCP-1, and IP-10 from the vascular channel was quantified using U-PLEX biomarker human assays (Meso Scale Diagnostics, Rockville, Md., USA) and the assays were performed according to the protocol provided by the vendor.

Data set [4] has the same test system. Description: DILI biomarker release (alpha-GST, miR-122, keratin 18) from human chips. The data set is classed as cell-based. The text has this:
Exemplary Biomarker, e.g. DILI: Keratin 18 levels were quantified in human model effluent samples from both the hepatocyte and vascular channels using the M65 EpiDeath CK18 ELISA Kit (DiaPharma, Detroit, Mich., USA). The assay was run following the vendor protocol using a standard curve ranging from 0-5,000 U/L. Additionally, a standard curve ranging from 0-500 U/L was generated independently for quality control.
Exemplary Biomarker, e.g. DILI: Alpha Glutathione S-Transferase (α-GST) levels were quantified in human model effluent samples from the upper channel using an ELISA kit (DiaPharma). The assay was run following the vendor protocol using a standard curve ranging from 0-64 μg/L. Additionally, a standard curve ranging from 0-50 μg/L was generated independently for quality control.
Exemplary Biomarker, e.g. DILI: Mir-122: Isolation of micro-RNAs was performed on upper and lower chamber eluates using Qiagen's (Hilden, Germany) miRNA isolation kit for serum and plasma. A total volume of 50 μL was used for isolation. Isolation was performed according to manufacturer's protocol using a 56.5 pM oligonucleotide spike-in control. Samples were eluted with 14 μL RNase-free water. Reverse transcription was performed using Thermo Fisher Scientific's TaqMan™ MicroRNA Reverse Transcription Kit according to the manufacturer's protocol. A total reaction volume of 15 μL was used. Real-time PCR was performed using Thermo Fisher Scientific's TaqMan™ Micro-RNA Assays according to manufacturer's protocol. A total reaction volume of 10 μl was used. Normalized rrCt was used for fold-change analysis.

The conditions of data set [5]: cited from earlier work.
The subject of data set [6] is microfluidic devices seeded with rat liver cells. The experiment in a line: Lipid accumulation (Nile red) in rat chips. Type of data set: cell-based. The settings on record: rat chips, 1, 10, 30 μM, 10 days. The text has this: Microfluidic devices seeded with liver cells were stained in the upper channel with 5(6)-Carboxy-2′,7′-dichlorofluorescein diacetate (CDFDA) (ThermoFisher) to visualize bile canaliculi and MRP2 activity, cholyl-lysyl-fluorescein (CLF) (Corning) to visualize bile canaliculi and BSEP activity, Nile red (ThermoFisher) or AdipoRed (Lonza) to visualize lipid droplet accumulation, Tetramethylrhodamine, methyl ester (TMRM) (ThermoFisher) to visualize active mitochondria, and CellROX® (ThermoFisher) to visualize cellular oxidative stress. Each staining solution was prepared in blank medium or compound dosing medium and added to the upper channel, incubated for 15 minutes at 37° C., and washed three times with medium. […] Using ImageJ-Fiji, the fluorescent channel images were histogram adjusted to remove background, followed by fluorescence quantification using the Integrated Density calculation function.
(§1) The stained microfluidic devices were imaged using the TRITC filter, and were de-blurred with Olympus cellSens software. Using ImageJ-Fiji, the fluorescent channel images were histogram adjusted to remove background, followed by fluorescence quantification using the Integrated Density calculation function. N=5 FOVs per microfluidic device were analyzed for conditions: vehicle (0.1% DMSO), FIAU dosing groups, and MTX dosing groups.

Data set [7] has as its system microfluidic devices seeded with human liver cells. Description: Lipid accumulation (Nile red / AdipoRed) in human chips. Type of data set: cell-based.
Text: (§2) Microfluidic devices seeded with liver cells were stained in the upper channel with 5(6)-Carboxy-2′,7′-dichlorofluorescein diacetate (CDFDA) (ThermoFisher) to visualize bile canaliculi and MRP2 activity, cholyl-lysyl-fluorescein (CLF) (Corning) to visualize bile canaliculi and BSEP activity, Nile red (ThermoFisher) or AdipoRed (Lonza) to visualize lipid droplet accumulation, Tetramethylrhodamine, methyl ester (TMRM) (ThermoFisher) to visualize active mitochondria, and CellROX® (ThermoFisher) to visualize cellular oxidative stress. Each staining solution was prepared in blank medium or compound dosing medium and added to the upper channel, incubated for 15 minutes at 37° C., and washed three times with medium. The stained microfluidic devices were imaged using a specific filter, and were de-blurred with Olympus cellSens software. Using ImageJ-Fiji, the fluorescent channel images were histogram adjusted to remove background, followed by fluorescence quantification using the Integrated Density calculation function.
as §1

Data set [8] concerns stellate cells. Description: Stellate cell activation (alpha-SMA) in human chips. Type of data set: cell-based. The procedure: Microfluidic devices seeded with liver cells and static sandwich plate cultures were fixed with 4% paraformaldehyde for 15 minutes at room temperature, washed with PBS, and permeabilized (saponin 1% with 10% serum in PBS). Blocking and incubation with the primary antibodies (overnight in PBS containing 1% BSA or PBS containing 10% serum and 1% BSA) was followed by a two-hour incubation with secondary antibodies (Cell Signaling, Danvers, Mass., USA) in the same blocking buffer. Immunostaining was performed with specific primary antibodies (anti-MRP2, anti-stabilin-1, anti-BSEP, anti-α-SMA, anti-CD68; Abcam, Cambridge, Mass., USA) and images were acquired with either an Olympus fluorescence microscope (IX83) or Zeiss confocal microscope (AxiovertZ1 LSM880).
The number of CD68- or α-SMA-positive cells in the vascular channel in each group was counted in each field of view ([…]) and quantified.
The fluorescent channel (588) was first background subtracted and processed using the median filter of Image J. After processing, the signal was thresholded using adaptive thresholding function of Image J (Otsu method) to extract fluorescent regions and to measure the relative intensity of the fluorescent signal. N=4 to 6 FOVs per microfluidic device from each microfluidic device were analyzed. […]

Data set [9] deals with hepatocytes in microfluidic devices seeded with human liver cells. Description: Hepatocyte morphology (bright-field) in human chips. Type of data set: cell-based. The following applies: quadruple-cell human chips, daily administration 7 days.
Data set [10] has as its system microfluidic devices seeded with human liver cells. The experiment in a line: Mitochondrial membrane potential (TMRM) in human chips. Type of data set: cell-based. The settings on record: TAK-875 3, 10, 30 μM, 8 or 15 days.
Text: as §2

Data set [11] has as its target T1, MRP2 (Homo sapiens, UniProt Q92887).
T1 construct: Primary rat, dog or human hepatocytes were cultured in the upper parenchymal channel; endogenous in cells; host or cells: primary human hepatocytes in a microfluidic Liver-Chip
The experiment in a line: Biliary efflux of MRP2 substrate CDFDA in human chips. The data set is classed as cell-based. The following applies: TAK-875 3, 10, 30 μM, up to 15 days.

Data set [12] relates to microfluidic devices seeded with human liver cells. Description: ROS levels (CellROX) in human chips. Type of data set: cell-based. The settings on record: TAK-875, up to 15 days.

T1 sequence (Q92887 whole entry): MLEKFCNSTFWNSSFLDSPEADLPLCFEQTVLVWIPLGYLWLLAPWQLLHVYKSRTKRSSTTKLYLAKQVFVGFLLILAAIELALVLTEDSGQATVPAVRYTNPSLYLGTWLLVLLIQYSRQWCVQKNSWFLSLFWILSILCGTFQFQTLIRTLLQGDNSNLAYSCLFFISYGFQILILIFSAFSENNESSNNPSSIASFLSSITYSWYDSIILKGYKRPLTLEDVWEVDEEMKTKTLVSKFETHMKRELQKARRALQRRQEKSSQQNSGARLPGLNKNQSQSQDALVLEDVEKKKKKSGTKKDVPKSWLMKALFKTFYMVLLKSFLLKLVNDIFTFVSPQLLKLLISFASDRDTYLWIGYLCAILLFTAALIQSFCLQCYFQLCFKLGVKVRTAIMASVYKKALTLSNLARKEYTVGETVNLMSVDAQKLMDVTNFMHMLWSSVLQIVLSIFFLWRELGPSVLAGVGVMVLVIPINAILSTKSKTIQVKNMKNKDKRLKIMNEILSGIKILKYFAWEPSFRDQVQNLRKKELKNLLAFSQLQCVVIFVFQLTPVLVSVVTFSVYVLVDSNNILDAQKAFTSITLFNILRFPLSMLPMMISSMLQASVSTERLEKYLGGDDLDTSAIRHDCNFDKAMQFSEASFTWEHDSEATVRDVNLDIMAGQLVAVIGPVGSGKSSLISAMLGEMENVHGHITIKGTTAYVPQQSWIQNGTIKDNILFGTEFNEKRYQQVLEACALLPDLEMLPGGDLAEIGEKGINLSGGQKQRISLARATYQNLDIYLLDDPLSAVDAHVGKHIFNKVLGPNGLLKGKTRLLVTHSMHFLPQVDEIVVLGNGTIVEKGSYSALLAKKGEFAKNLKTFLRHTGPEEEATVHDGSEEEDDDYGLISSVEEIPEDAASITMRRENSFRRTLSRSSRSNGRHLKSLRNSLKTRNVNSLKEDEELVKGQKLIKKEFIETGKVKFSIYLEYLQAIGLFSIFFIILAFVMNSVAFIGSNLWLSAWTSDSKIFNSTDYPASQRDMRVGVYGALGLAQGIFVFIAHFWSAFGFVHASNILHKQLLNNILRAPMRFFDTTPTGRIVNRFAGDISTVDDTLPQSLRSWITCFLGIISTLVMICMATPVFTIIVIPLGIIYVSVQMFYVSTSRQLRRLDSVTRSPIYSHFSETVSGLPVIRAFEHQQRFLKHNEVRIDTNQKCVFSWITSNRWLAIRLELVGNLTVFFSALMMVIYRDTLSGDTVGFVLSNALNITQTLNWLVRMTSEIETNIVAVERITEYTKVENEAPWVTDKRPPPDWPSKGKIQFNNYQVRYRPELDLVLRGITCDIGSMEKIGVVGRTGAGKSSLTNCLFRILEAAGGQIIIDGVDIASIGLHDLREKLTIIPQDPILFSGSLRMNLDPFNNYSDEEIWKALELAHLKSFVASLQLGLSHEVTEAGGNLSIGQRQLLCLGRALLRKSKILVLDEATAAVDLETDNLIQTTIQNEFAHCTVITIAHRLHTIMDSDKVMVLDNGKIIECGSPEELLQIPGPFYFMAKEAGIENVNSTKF

On to `O=c1[nH]c(=O)n([C@@H]2O[C@H](CO)[C@@H](O)[C@@H]2F)cc1I` [FIAU, fialuridine], for which the “concentrations with dose-dependent decline in albumin secretion” value in data set [1] (quadruple-cell human chips, daily FIAU 1, 10, 30 μM) was no less than 1000 nM. Also, in [2], the hepatocyte function result is “no effects”. Moreover, the “release of cytokines/chemokines including IP-10” value in data set [3] was “observed”. For the same compound, in data set [4] (FIAU 1, 10, 30 μM, 10 days), the “keratin 18 (K-18) (liver injury marker)” value is on record as “release”, the “miR122 (liver injury marker)” value is on record as “release” and the “α-GST (liver injury marker)” value was “release”. Also, in data set [5] (Phase II clinical trials), the “patients with liver failure and death” value was 5/15. Moreover, the lipid accumulation entry in data set [6] was “no effects”. In addition, the “lipid accumulation (Nile red)” value in [7] (daily 1, 10, 30 μM for 10 days, human chips) is reported as “dose-dependent increase”.

As to `CN(Cc1cnc2nc(N)nc(N)c2n1)c1ccc(C(=O)N[C@@H](CCC(=O)O)C(=O)O)cc1` [MTX, Methotrexate], the “albumin synthesis / secretion” value in data set [1] (quadruple-cell human chips, 7 days) was “no abnormalities”. In data set [3] (MTX 1, 10, 30 μM, vascular channel, 1 day (FIG. 8C)), the IP-10 entry was “increases”. In addition, the “release of cytokines/chemokines including IP-10” value in data set [3] is reported as “observed”. In addition, the “stellate cell activation, expression of α-SMA” value in [8] (daily 1, 10, 30 μM for 7 days) was “increased expression”. Further, the hepatocyte morphology result in data set [9] is given as “no abnormalities”. Moreover, the “maximal plasma concentration at which liver injury occurs in humans” value in data set [5] (some patient populations) was roughly 1 µM. The “lipid accumulation (Nile red)” value in data set [7] (daily 1, 10, 30 μM for 7 days) is on record as “microscopic evidence of lipid accumulation”.

In the case of `Cc1cc(OCCCS(C)(=O)=O)cc(C)c1-c1cccc(COc2ccc3c(c2)OC[C@H]3CC(=O)O)c1` [TAK-875], the albumin production entry in data set [1] (30 μM, 14 days, human chips) is reported as “decreased”. Further, the results for the IL-6 release result in data set [3] (10 μM) and in [3] (30 μM (highest dose)) were “significant release” and “not observed”, respectively. Moreover, the MCP-1 release result in data set [3] (10 μM) was “significant release”; in [3] (30 μM (highest dose)) it was “not observed”. Further, the “% aSMA positive area from the vascular channel” value in data set [8] (10 or 30 uM for 15 days, human Liver-Chips) is “Not significant”. In [10], the “mitochondrial membrane potential, TMRM distribution” value is “dose-related and time-dependent redistribution”. The “biliary efflux of the MRP2 substrate CDFDA” value in [11] is reported as “dose-dependent decrease”. Further, the “release of K18” value in data set [4] (30 μM, 14 days) is on record as “increased release”. The “markers of hepatocyte function or necrosis (albumin and K18)” value in data set [4] (accompanying mitochondrial perturbations, human chips) is on record as “minimal changes”. For the same compound, the “formation of ROS” value in [12] was “increase”. The “incidence of treatment-related elevations in transaminases (>3-fold rise in upper limit of normal)” value in data set [5] (Phase III trials) is listed as 2.7%. The “lipid droplet accumulation (AdipoRed)” value in data set [7] (end of the 2-week treatment) was “detected”.
